Converted amounts (≈) assume the structure as drawn.
Assays:
Plasminogen = Plasminogen (Homo sapiens, UniProt P00747); experiment: Inhibitory activity against plasmin
Prothrombin = Prothrombin (Homo sapiens, UniProt P00734); experiment: Evaluated for the binding affinity against thrombin
[1] = Oral bioavailability in rat; type: ADME, organism-based; conditions: in vivo
[2] = Effectiveness to inhibit coagulation in plasma measured as activated partial thromboplastin time (APTT); type: functional
Serine protease 1 = Serine protease 1 (Homo sapiens, UniProt P07477); experiment: Inhibitory activity against trypsin
[3] = Aqueous solubility at pH 2; type: physicochemical
[4] = Aqueous solubility at pH 7; type: physicochemical
Coagulation factor X = Coagulation factor X (Homo sapiens, UniProt P00742); experiment: Inhibitory activity against Coagulation factor X
[5] = Inhibitory activity against TF/VIIa
[6] = Bioavailability in rat (intraduodenal administration); type: ADME, organism-based; conditions: in vivo
Rattus norvegicus [7] = experiment: Inhibition of fibrin deposition was determined after 2 hr on arterial thrombosis in the rat at 20 mg/kg oral administration using an acute model of injury induced thrombus formation; type: functional
Rattus norvegicus [8] = experiment: Inhibition of platelet deposition was determined on arterial thrombosis in the rat at 20 mg/kg oral administration using an acute model of injury induced thrombus formation; type: functional; conditions: read-out: Inhibition
Rattus norvegicus [9] = experiment: Inhibition of fibrin deposition was determined after 1 hr on arterial thrombosis in the rat at 20 mg/kg oral administration using an acute model of injury induced thrombus formation; type: functional
Rattus norvegicus [10] = experiment: Inhibition of platelet deposition was determined on arterial thrombosis in the rat at 10 mg/kg oral administration using an acute model of injury induced thrombus formation; type: functional

Plasminogen, sequence (P00747 97-580 limits assumed): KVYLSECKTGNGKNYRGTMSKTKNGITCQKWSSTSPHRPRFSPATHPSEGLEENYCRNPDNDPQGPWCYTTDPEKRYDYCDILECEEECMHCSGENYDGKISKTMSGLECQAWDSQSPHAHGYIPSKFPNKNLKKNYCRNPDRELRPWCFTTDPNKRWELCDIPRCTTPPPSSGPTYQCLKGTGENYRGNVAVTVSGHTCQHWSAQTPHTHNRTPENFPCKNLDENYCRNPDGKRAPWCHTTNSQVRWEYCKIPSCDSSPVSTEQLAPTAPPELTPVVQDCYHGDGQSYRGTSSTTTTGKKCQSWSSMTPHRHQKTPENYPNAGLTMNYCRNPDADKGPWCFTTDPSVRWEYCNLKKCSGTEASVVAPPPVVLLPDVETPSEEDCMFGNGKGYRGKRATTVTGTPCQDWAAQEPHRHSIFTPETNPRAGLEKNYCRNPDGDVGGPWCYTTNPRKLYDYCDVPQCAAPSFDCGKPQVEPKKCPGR
Plasminogen, sequence (P00747 581-810 limits assumed): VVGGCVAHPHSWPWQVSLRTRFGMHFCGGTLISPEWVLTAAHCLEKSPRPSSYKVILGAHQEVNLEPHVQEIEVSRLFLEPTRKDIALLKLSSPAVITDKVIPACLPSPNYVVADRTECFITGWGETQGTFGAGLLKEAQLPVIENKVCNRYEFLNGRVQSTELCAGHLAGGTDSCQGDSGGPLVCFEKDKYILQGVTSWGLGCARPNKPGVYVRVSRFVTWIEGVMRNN
Coagulation factor X, sequence (P00742 41-179 limits assumed): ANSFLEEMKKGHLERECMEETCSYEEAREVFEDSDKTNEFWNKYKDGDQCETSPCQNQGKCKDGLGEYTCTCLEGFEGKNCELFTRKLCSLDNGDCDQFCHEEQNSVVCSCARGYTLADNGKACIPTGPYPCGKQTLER
Coagulation factor X, sequence (P00742 235-488 limits assumed): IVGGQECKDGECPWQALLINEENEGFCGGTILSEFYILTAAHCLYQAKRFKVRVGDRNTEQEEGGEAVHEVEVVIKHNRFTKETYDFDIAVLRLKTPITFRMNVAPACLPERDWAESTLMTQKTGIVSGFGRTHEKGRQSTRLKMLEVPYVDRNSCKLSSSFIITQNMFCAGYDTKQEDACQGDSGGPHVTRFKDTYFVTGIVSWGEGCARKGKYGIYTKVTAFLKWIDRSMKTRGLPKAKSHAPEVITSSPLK
Serine protease 1, sequence (P07477 whole entry): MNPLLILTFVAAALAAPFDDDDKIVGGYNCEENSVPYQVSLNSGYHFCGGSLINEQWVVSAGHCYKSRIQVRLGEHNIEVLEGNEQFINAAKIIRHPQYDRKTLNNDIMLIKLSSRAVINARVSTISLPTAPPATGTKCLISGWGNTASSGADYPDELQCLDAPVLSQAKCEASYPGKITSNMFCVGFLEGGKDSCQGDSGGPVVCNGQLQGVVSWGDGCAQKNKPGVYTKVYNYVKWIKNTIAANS

Ki (Prothrombin) [µM]	Compound	APTT [2] [µM]	also measured
0.057	CC1(C)CNc2c(cc(CCC(=O)N3CCN(CC(=O)N4CCOCC4)CC3)cc2S(=O)(=O)N[C@@H](Cc2nc3ccccc3s2)C(=O)N2CCC(CCF)CC2)C1 [listing 1 of 2 here]	7	Ki (Plasminogen): 212 µM; bioavailability [1]: 28%; Ki (Serine protease 1): 153 µM; solubility [3]: 15000 µg/mL (≈ 18200 µM); solubility [4]: 130 µg/mL (≈ 157 µM); Ki (Coagulation factor X): ≥ 200 µM; Ki [5]: 11600 µM; bioavailability [6]: 38%
0.027	CC1(C)CNc2c(cc(CCC(=O)N3CCN(Cc4ccncc4)CC3)cc2S(=O)(=O)N[C@@H](Cc2nc3ccccc3s2)C(=O)N2CCC(CCF)CC2)C1	9.7	–
–	CC1(C)CNc2c(cccc2S(=O)(=O)N[C@@H](Cc2nc3ccccc3s2)C(=O)N2CCC(CCF)CC2)C1	26.5	–
0.125	COCCOCOCc1cc2c(c(S(=O)(=O)N[C@@H](Cc3nc4ccccc4s3)C(=O)N3CCC(CCF)CC3)c1)NCC(C)(C)C2	18	–
0.034	CC(=O)N1CCN(C(=O)CCc2cc3c(c(S(=O)(=O)N[C@@H](Cc4nc5ccccc5s4)C(=O)N4CCC(CCF)CC4)c2)NCC(C)(C)C3)CC1	7.5	–
0.034	CN(C)C(=O)CCc1cc2c(c(S(=O)(=O)N[C@@H](Cc3nc4ccccc4s3)C(=O)N3CCC(CCF)CC3)c1)NCC(C)(C)C2	9.2	–
0.119	CC1(C)CNc2c(cc(CCCO)cc2S(=O)(=O)N[C@@H](Cc2nc3ccccc3s2)C(=O)N2CCC(CCF)CC2)C1	19	–
0.094	CC1(C)CNc2c(cc(CCCC(=O)O)cc2S(=O)(=O)N[C@@H](Cc2nc3ccccc3s2)C(=O)N2CCC(CCF)CC2)C1	16.6	–
0.5	CC1(C)CNc2c(cc(CC(=O)O)cc2S(=O)(=O)N[C@@H](Cc2nc3ccccc3s2)C(=O)N2CCC(CCF)CC2)C1	14.9	–
0.082	CC1(C)CNc2c(cc(CCC(=O)O)cc2S(=O)(=O)N[C@@H](Cc2nc3ccccc3s2)C(=O)N2CCC(CCF)CC2)C1	10.7	bioavailability [1]: 0%; solubility [4]: 5.15 µg/mL (≈ 8.16 µM); bioavailability [6]: 50%
0.039	CC1(C)CNc2c(cc(CCO)cc2S(=O)(=O)N[C@@H](Cc2nc3ccccc3s2)C(=O)N2CCC(CCF)CC2)C1	13.7	–
0.047	CC1(C)CNc2c(cc(CCNC(N)=O)cc2S(=O)(=O)N[C@@H](Cc2nc3ccccc3s2)C(=O)N2CCC(CCF)CC2)C1	10.2	–
0.064	CC1(C)CNc2c(cc(CO)cc2S(=O)(=O)N[C@@H](Cc2nc3ccccc3s2)C(=O)N2CCC(CCF)CC2)C1	16.8	–
0.359	CC1(C)CNc2c(cc(C(=O)O)cc2S(=O)(=O)N[C@@H](Cc2nc3ccccc3s2)C(=O)N2CCC(CCF)CC2)C1	13	–
0.077	CNC(=O)OCc1cc2c(c(S(=O)(=O)N[C@@H](Cc3nc4ccccc4s3)C(=O)N3CCC(CCF)CC3)c1)NCC(C)(C)C2	20.7	–
–	CCOC(=O)c1cc2c(c(S(=O)(=O)N[C@@H](Cc3nc4ccccc4s3)C(=O)N3CCC(CCF)CC3)c1)NCC(C)(C)C2	105.4	–
–	CC1(C)CNc2c(cc(CCC(=O)N3CCN(CC(=O)N4CCOCC4)CC3)cc2S(=O)(=O)N[C@@H](Cc2nc3ccccc3s2)C(=O)N2CCC(CCF)CC2)C1 [listing 2 of 2 here]	–	inhibition in vivo at 20 mg/kg (Rattus norvegicus [7]): 43%; inhibition in vivo at 20 mg/kg (Rattus norvegicus [8]): 60%; inhibition in vivo at 20 mg/kg (Rattus norvegicus [9]): 48%; inhibition in vivo at 10 mg/kg (Rattus norvegicus [10]): 60%
0.006	CC1(C)CNc2c(cccc2S(=O)(=O)N[C@@H](CCCN=C(N)N)C(=O)N2CCC(CCF)CC2)C1 [CGH-728]	2.1	–
